# Laboratory results from PMC4599284, “Redox effects and cytotoxic profiles of MJ25 and auranofin towards malignant melanoma cells” (Oncotarget, 2015).
# Assays:
# [1] = biological target: T1, thioredoxin reductase 1 (TrxR1) (Rattus norvegicus, UniProt O89049); experiment: NADPH-dependent DTNB reduction assay with purified enzyme; irreversibility tested by desalting; assay type: biochemical
# T1 construct: gene Txnrd1; recombinant selenocysteine-containing rat TrxR1
# T1 sequence (O89049 1-499): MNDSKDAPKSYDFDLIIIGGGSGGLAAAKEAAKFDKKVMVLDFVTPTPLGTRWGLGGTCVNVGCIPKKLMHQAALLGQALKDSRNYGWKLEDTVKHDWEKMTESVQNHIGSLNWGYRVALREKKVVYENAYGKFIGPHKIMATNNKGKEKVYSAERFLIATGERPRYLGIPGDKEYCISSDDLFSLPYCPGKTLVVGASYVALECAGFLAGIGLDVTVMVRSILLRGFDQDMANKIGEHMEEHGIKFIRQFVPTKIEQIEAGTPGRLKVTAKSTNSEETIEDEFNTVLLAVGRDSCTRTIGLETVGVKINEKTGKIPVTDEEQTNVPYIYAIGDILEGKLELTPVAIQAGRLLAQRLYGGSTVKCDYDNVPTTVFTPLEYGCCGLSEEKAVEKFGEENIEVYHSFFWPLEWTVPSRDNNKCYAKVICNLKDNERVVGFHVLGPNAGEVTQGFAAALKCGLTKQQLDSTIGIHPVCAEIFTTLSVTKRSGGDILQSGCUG
# [2] = biological target: T1, thioredoxin reductase 1 (TrxR1); experiment: NADPH-dependent juglone reduction by purified enzyme, NADPH consumption at […] nm; assay type: biochemical
SMILES,NADPH-dependent DTNB reduction assay with purified enzyme; irreversibility teste [1],"NADPH-dependent juglone reduction by purified enzyme, NADPH consumption at 340 n [2]"
"O=S(=O)(CCSc1nc2ccccc2o1)c1nc2ccccc2s1 [MJ25, 2-{[2-(1,3-benzothiazol-2-ylsulfonyl)ethyl]thio}-1,3-benzoxazole]",we also confirmed that repurchased MJ25 inhibited recombinant TrxR1 (Figure 4a),
"O=C1C=CC(=O)c2c(O)cccc21 [juglone, 5-hydroxy-1,4-naphthoquinone]",,using juglone as a Sec-independent substrate and the DTNB assay as a Sec-dependent activity control
CC[P](CC)(CC)=[Au][S][C@@H]1O[C@H](COC(C)=O)[C@@H](OC(C)=O)[C@H](OC(C)=O)[C@H]1OC(C)=O [auranofin],Both MJ25 and auranofin were found to inhibit TrxR1 irreversibly.,
